One molecule from ChEMBL document CHEMBL5030565, “Stapled Peptides Targeting SARS-CoV-2 Spike Protein HR1 Inhibit the Fusion of Virus to Its Cell Receptor” (J Med Chem, 2021) can be followed below.

One series concerns the target chymotrypsin (Homo sapiens, UniProt P17538+P40313+Q6GPI1+Q99895). As to the kind of experiment: Stability of the compound in PBS at pH 7.4 assessed as chymotrypsin (unknown origin)-mediated proteolysis by measuring remaining compound after 12 hrs by HPLC analysis. Type of series: ADME, protein assay. The settings on record: read-out: Stability.
Series [1] has as its system SARS-CoV-2. As to the kind of experiment: Antiviral activity against SARS-CoV-2 infected in Vero E6 cells assessed as reduction in viral replication preincubated for 30 mins followed by viral infection measured after 72 hrs by crystal violet staining based plaque assay. In kind it is functional, organism-based. The settings on record: Severe acute respiratory syndrome coronavirus 2, Vero C1008.

Series [2] concerns SARS-CoV-2. The experiment in a line: Antiviral activity against SARS-CoV-2 infected in Vero E6 cells assessed as reduction in viral replication at 12.5 uM preincubated for 30 mins followed by viral infection measured after 72 hrs by crystal violet staining based plaque assay. In kind it is functional, Severe acute respiratory syndrome coronavirus 2. The arrangement: scale not given: the % may be the effect or the level left.

The subject of series [3] is SARS-CoV-2. The experiment in a line: Antiviral activity against pseudotyped SARS-CoV-2 infected in Calu-3 cells at higher concentration. Type of series: functional, organism-based. The settings on record: Severe acute respiratory syndrome coronavirus 2.
Series [4] concerns SARS-CoV-2. The experiment in a line: Antiviral activity against pseudotyped SARS-CoV-2 infected in Huh7 cells expressing hACE2 preincubated for 1 hr followed by cell infection measured after 2 days by bright-Glo luciferase assay. The settings on record: Severe acute respiratory syndrome coronavirus 2, Huh-7. In kind it is functional, organism-based.
The subject of series [5] is SARS-CoV-2. The experiment in a line: Antiviral activity against pseudotyped SARS-CoV-2 infected in Huh7 cells expressing hACE2 at 10 uM preincubated for 1 hr followed by cell infection measured after 2 days by bright-Glo luciferase assay. Type of series: functional, Severe acute respiratory syndrome coronavirus 2, Huh-7. The settings on record: time 49 hrs.
Series [6] concerns the target Spike glycoprotein (Severe acute respiratory syndrome coronavirus 2) (UniProt P0DTC2). The experiment in a line: Inhibition of SARS-CoV-2 spike glycoprotein expressed in HEK293T cells transfected with pAAV-CAG-HnCovS-RFP assessed as inhibition of membrane fusion to Huh-7 cells expressing hACE2 at 30 uM measured after 4 hrs by cell-cell fusion based fluorescence assay. Type of series: functional.

Structures are written as SMILES. pEC50: −log10 of the molar value. Calls of active or inactive are those of the source. The calls are words filed in the database; no cut-off is given here.

Consider `CC[C@H](C)[C@H](NC(=O)CNC(=O)[C@H](CO)NC(=O)[C@@H](NC(=O)[C@H](CC(=O)O)NC(C)=O)[C@@H](C)CC)C(=O)N[C@@H](CC(N)=O)C(=O)N[C@@H](C)C(=O)N[C@@H](CO)C(=O)N[C@H](C(=O)N[C@H](C(=O)N[C@@H](CC(N)=O)C(=O)N[C@H](C(=O)N[C@@H](CCC(N)=O)C(=O)N[C@@H](CCCCN)C(=O)N[C@@H](CCC(=O)O)C(=O)N[C@H](C(=O)N[C@@H](CC(=O)O)C(=O)N[C@@H](CCCNC(=N)N)C(=O)N[C@@H](CC(C)C)C(=O)N[C@@]1(C)CCC/C=C\CCC[C@@](C)(C(=O)N[C@@H](CC(N)=O)C(=O)N[C@@H](CC(C)C)C(=O)N[C@@H](CC(N)=O)C(=O)N[C@@H](CCC(=O)O)C(=O)N[C@@H](CO)C(=O)N[C@@H](CC(C)C)C(=O)N[C@H](C(=O)N[C@@H](CC(=O)O)C(=O)N[C@@H](CC(C)C)C(=O)N[C@@H](CCC(N)=O)C(=O)N[C@@H](CCC(=O)O)C(=O)N[C@@H](CC(C)C)C(N)=O)[C@@H](C)CC)NC(=O)[C@H](C)NC(=O)[C@H](C(C)C)NC(=O)[C@H](CCC(=O)O)NC1=O)[C@@H](C)CC)[C@@H](C)CC)C(C)C)C(C)C`, for which, at chymotrypsin, the remaining at 12 h is > 80%. The pEC50 (usually the negative decadic logarithm of the EC50, by convention in mol/L) was 5.18 with SARS-CoV-2 [1] and 5.39 in the series on SARS-CoV-2 [4]. Also, the Activity with SARS-CoV-2 [2] stood at 55%; in the series on SARS-CoV-2 [5], 69.7%. Also, the result with SARS-CoV-2 [3] was Active. Further, in series [6], the inhibition entry was “Active”.
